Laboratory results from patent US4533666A, “6-Phenyl-2,3-bis-(4-methoxyphenyl)-pyridine derivatives having anti-inflammatory activity” (Eli Lilly and Company, priority 1983, dated 1985).

Tests used:
[1] = Established adjuvant-induced arthritis test in rats, uninjected paw volume inflammation; format: in vivo, rat (male Lewis-Wistar rats); settings: Days 14 through 30, AUC difference
[2] = mouse writhing assay (acetic acid-induced); format: in vivo, mouse (Cox standard strain albino male mice); settings: oral gavage in corn oil-acacia emulsion (5%), three hours before acetic acid (0.60 percent) i.p., five mice per group; for ED50: Mus musculus, po, 3 h
From the text: The analgesic activity of a number of compounds provided by this invention has been determined in the standard mouse writhing assay. Writhing, which is characterized by contraction of the abdominal musculature, extension of the hindlegs, and rotation of the trunk, was induced in Cox standard strain albino male mice. The mice, weighing 18-24 grams, were fasted overnight and given the test compound by gavage in a corn oil-acacia emulsion (5%) three hours before writhing was induced by the intraperitoneal administration of acetic acid (0.60 percent). Each treatment group consisted of five mice. The total number of writhes for the treatment group was determined during a 10-minute observation starting five minutes after acetic acid administration. […] Table I which follows presents typical test results obtained with certain of the compounds of this invention. The results in the mouse writhing assay are presented as the effective oral (p.o.) dose in mg./kg. of the tested compound required to inhibit induced writhing in the test animals by fifty percent (ED50).

SMILES: COc1ccc(-c2ccc(-c3ccc(F)cc3)nc2-c2ccc(OC)cc2)cc1 [Example 6, 6-(4-Fluorophenyl)-2,3-bis(4-methoxyphenyl)pyridine 4-methylbenzenesulfonate]
- % Inhibition of Uninjected Paw Volume Inflammation ([1]; 5 mg./kg. p.o. × 15, 4-methylbenzenesulfonate): 69%
- % Inhibition of Uninjected Paw Volume Inflammation ([1]; 10 mg./kg. p.o. × 15, 4-methylbenzenesulfonate): 71%
- Mouse Writhing ED50 ([2]; 180 min, 4-methylbenzenesulfonate, 180 min): 4.2 mg./kg. p.o.

SMILES: COc1ccc(-c2ccc(-c3ccc(Cl)cc3)nc2-c2ccc(OC)cc2)cc1 [Example 3, 6-(4-Chlorophenyl)-2,3-bis(4-methoxyphenyl)pyridine]
- % Inhibition of Uninjected Paw Volume Inflammation ([1]; 5 mg./kg. p.o. × 15): 30%
- % Inhibition of Uninjected Paw Volume Inflammation ([1]; 10 mg./kg. p.o. × 15): 58%
- ED50 [2]: 0.78 mg/kg

SMILES: COc1ccc(-c2ccc(-c3ccccc3)nc2-c2ccc(OC)cc2)cc1 [Example 2, 6-Phenyl-2,3-bis(4-methoxyphenyl)pyridine]
- % Inhibition of Uninjected Paw Volume Inflammation ([1]; 25 mg./kg. p.o. × 15, Average of two experiments): 40%
- ED50 [2]: 2.7 mg/kg

SMILES: COc1ccc(-c2ccc(-c3ccc(Br)cc3)nc2-c2ccc(OC)cc2)cc1 [Example 4, 6-(4-Bromophenyl)-2,3-bis(4-methoxyphenyl)pyridine]
- % Inhibition of Uninjected Paw Volume Inflammation ([1]; 10 mg./kg. p.o. × 15): 27%
- % Inhibition of Uninjected Paw Volume Inflammation ([1]; 25 mg./kg. p.o. × 15): 48%
- ED50 [2]: 4.1 mg/kg

SMILES: COc1ccc(-c2ccc(-c3ccc(C(F)(F)F)cc3)nc2-c2ccc(OC)cc2)cc1 [Example 7, 6-(4-Trifluoromethylphenyl)-2,3-bis(4-methoxyphenyl)pyridine]
- % Inhibition of Uninjected Paw Volume Inflammation ([1]; 25 mg./kg. p.o. × 15): 33%
- ED50 [2]: 8.9 mg/kg

SMILES: COc1ccc(-c2ccc(-c3ccc(F)cc3)nc2-c2ccc(OC)cc2)cc1 [Example 1, 6-(4-Fluorophenyl)-2,3-bis(4-methoxyphenyl)pyridine]
- % Inhibition of Uninjected Paw Volume Inflammation ([1]; 5 mg./kg. p.o. × 15): 70%
- % Inhibition of Uninjected Paw Volume Inflammation ([1]; 10 mg./kg. p.o. × 15): 80%
- ED50 [2]: 3.5 mg/kg
